Patent US20250304587A1, “WEE1 INHIBITOR, PREPARATION THEREFOR AND USE THEREOF” (JIANGSU TASLY DIYI PHARMACEUTICAL CO., LTD., priority 2022, published 2025)
Where two headings read alike, the source gives them in different places.

Legend:
Wee1 protein = Wee1 protein (Homo sapiens (Human), UniProt P30291); assay: TR-FRET binding of compound to Wee1 protein and Tracer 178; conditions: Tracer 178, read-out: IC50, inhibitory activity against Wee1 kinase
Experimental: First, solutions of the compounds in different concentration gradients were prepared. The compounds were dissolved in DMSO and the compounds were diluted 4 folds with a total of 10 dose points and 2 parallel replicates for each concentration.
The IC50 for inhibition of enzyme activity by the compounds was then calculated using GraphPad Prism 6 and fitted with a log (inhibitor) vs. response-Variable slope mode. The fitting equation was: Y=Bottom+(Top−Bottom)/(1+10^((Log IC50−X)*HillSlope)), where Y represents the percentage of residual enzyme activity known and X represents the known concentration of compound after the logarithm.

BxPC3 cells = assay: Cell Titer-Glo anti-proliferation, BxPC3 cells; assay type: cell-based, human; conditions: 3 days, read-out: Anti-proliferative activity BxPC3 (IC50 class)
Summary of the method: (§1)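 Each line was exposed to graded compound concentrations for 3 days at 37 °C, 5% CO2, with final DMSO at 0.2%. Viability was measured by Cell Titer-Glo luminescence, with untreated cells as the maximum and medium as the minimum signal. IC50 came from a variable-slope log(inhibitor)-response fit.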

HT-29 cells = assay: Cell Titer-Glo anti-proliferation, HT-29 cells; assay type: cell-based, human; conditions: 3 days, read-out: Anti-proliferative activity HT-29 (IC50 class)
Summary of the method: as §1

OVCAR-3 cells = assay: Cell Titer-Glo anti-proliferation, OVCAR-3 cells; assay type: cell-based; conditions: 3 days, read-out: Anti-proliferative activity OVCAR-3 (IC50 class)
Summary of the method: as §1

HUVEC cells = assay: Cell Titer-Glo anti-proliferation, normal cells HUVEC; assay type: cell-based
Experimental: (§2) Compound solutions of different concentration gradients were prepared. […] The cell growth group without compound was used as a positive control (maximum signal control) and the medium was used as a negative control (minimum signal control), while ensuring that the final level of DMSO in each reaction well was 0.2%. After removing the medium from the 384-well plate, 25 μl of the configured compound at different concentrations was transferred into the well plate and the compound and cells were incubated in the cell incubator at 37° C. with 5% CO2 for 3 days.
(§3) The 384-well plates were removed from the cell incubator and allowed to equilibrate for 1 h to room temperature. 25 μl of Cell Titer-Glo assay was added to each well, lysed on a shaker for 2 min and then read out (Luminescence) using a BMG PHERAStar after 10 min incubation. Calculate the inhibition rate from the luminescence signal.
(§4) to calculate the rate of inhibition of the cells by different concentrations of the compounds. The IC50 of the compound on cell activity inhibition was calculated by fitting a log(inhibitor) vs. response-Variable slope model to GraphPad Prism 6. The fitted equation was: Y=Bottom+(Top-Bottom)/(1+10^((Log IC50−X)*HillSlope)), where Y represents the rate of inhibition and X represents the concentration of the known compound after Log.
(§5) B. Evaluation of the Anti-Proliferative Effect of Compounds by the Cell Titer-Glo Method on Normal Cells HUVEC and HK2.
(§6) The test method is the same as the anti-proliferative activity evaluation of tumor cells.

HK2 cells = assay: Cell Titer-Glo anti-proliferation, normal cells HK2; assay type: cell-based
Experimental: as §2, §3, §4, §5, §6

[1] = Saturated solubility in buffer at different pH; assay type: physicochemical
Experimental: The compound was placed in a buffer solution and shaken at constant temperature for 24 h. […] Chromatographic conditions: C18 column, mobile phase A: 0.02 M potassium dihydrogen phosphate:acetonitrile=90:10, mobile phase B: acetonitrile; V: 1.0 ml/min, T: 35° C., λ: 210 nm.

Caco-2 cells = assay: Membrane permeability in Caco-2 model; assay type: in vitro ADME
Experimental: Caco-2 cells were purchased from the American Model Tissue Cell Collection (Rockville, MD). The cell culture medium was modified Eagle's medium (MEM) containing 10% inactivated fetal bovine serum and 1% non-essential amino acids. […] The cells were incubated for 21-28 days after inoculation for transport experiments and the apparent permeability (Papp) of Lucifer Yellow was used to characterize and verify the compactness of the cell monolayer. […] After the incubation, dilute the samples on the apical side and basolateral side, and the concentrations of compounds on the apical and basolateral sides were detected by LC-MS/MS, and the concentrations of the compounds were quantified by standard curve.

hERG potassium channel = hERG potassium channel (Homo sapiens (Human), UniProt Q12809); assay: hERG potassium channel inhibition, patch clamp in CHO hERG cells
[2] = Toxicity in rats after 14 consecutive days of administration, survival; conditions: 75 mg/kg qd by gavage, 14 days
[3] = Metabolic stability in liver microsomes, mouse; assay type: in vitro ADME
Experimental: (§7) Test Example 3: Evaluation of the Metabolic Stability of Liver Microsomes (Mouse and Human) In Vitro Microsomes were taken out from the −80° C. refrigerator, rapidly melted in a 37° C. water bath and placed on ice until ready to use. The test article was diluted with DMSO to prepare a 10 mM stock solution, and then diluted with acetonitrile to a 0.5 mM secondary stock solution. […] NADPH was diluted with Buffer C to a working solution of 6 mM for the starter solution. An acetonitrile solution containing an internal standard was prepared as the precipitant, and Verapamil-HCl was chosen as the internal standard at a concentration of 4 ng/ml. […] A separate plate with pointed bottom wells, noted as a precipitation plate, was added with 135 μL precipitant per well; 0 h samples were transferred to the plate after 10 min incubation and 15 μL of starter solution was added; the plate was placed on ice before centrifugation. The diluted starter solution was added in sufficient quantity to the dispensing plate to facilitate the multichannel pipette aspiration operation. The reaction was carried out on a warm incubation shaker and 15 μL of starter solution/sample is added to the plate using a multichannel pipette. The reaction was mixed with a slight shake to initiate the reaction, which was accurately timed and recorded using a timer; After the reaction time had elapsed, all the solution in the plate was aspirated using the multichannel pipette and added to the precipitation plate to terminate the reaction at that point in time. After all reactions had been terminated, the plates were shaken for ten minutes on a plate shaker at 600 rpm to precipitate the protein. The plate was centrifuged at 4° C. for 15 minutes at maximum rpm. 80 μL of supernatant was taken, 320 μL of pure water was added and mixed for LC-MS analysis.

[4] = Metabolic stability in liver microsomes, human; assay type: in vitro ADME
Experimental: as §7

[5] = Metabolic stability in liver microsomes, rat; assay type: in vitro ADME
Experimental: as §7, with “Microsomes” for “Test Example 3: Evaluation of the Metabolic Stability of Liver Microsomes (Mouse and Human) In Vitro Microsomes”

[6] = Metabolic stability in liver microsomes, dog; assay type: in vitro ADME
Experimental: as §7, with “Microsomes” for “Test Example 3: Evaluation of the Metabolic Stability of Liver Microsomes (Mouse and Human) In Vitro Microsomes”

[7] = Metabolic stability in liver microsomes, monkey; assay type: in vitro ADME
Experimental: as §7, with “Microsomes” for “Test Example 3: Evaluation of the Metabolic Stability of Liver Microsomes (Mouse and Human) In Vitro Microsomes”

plasma protein [8] = assay: Plasma protein binding (equilibrium dialysis), rat; assay type: in vitro ADME; conditions: 1 μM, 5 h dialysis
CYP3A4 = CYP3A4 (Homo sapiens (Human), UniProt P08684); assay: Cytochrome P450 inhibition (fluorescence), CYP3A4; assay type: in vitro ADME
Experimental: (§8) Enzymatic experiments were performed to quantify the inhibition of CYP450 enzyme activity of each isoform of CYP450 by small molecule inhibitors through fluorescence generated by the oxidation of the substrate by cytochrome P450. […] The Solution B composition used for the experiment was: 40 U/mL G6PDH (Sigma-aldrich, Cat #G6378). The substrate mix was 0.05× Solution A, 0.01× Solution B, 50 mM Potassium Phosphate, 0.01 mM BOMCC/0.01 mM EOMCC/0.001 mM DBOMF. […] The data were analyzed and processed using GraphPad Prism 6 software to obtain IC50 values.

CYP1A2 = CYP1A2 (Homo sapiens (Human), UniProt P05177); assay: Cytochrome P450 inhibition (fluorescence), CYP1A2; assay type: in vitro ADME
Experimental: as §8

CYP2C9 = CYP2C9 (Homo sapiens (Human), UniProt P11712); assay: Cytochrome P450 inhibition (fluorescence), CYP2C9; assay type: in vitro ADME
Experimental: as §8

CYP2D6 = CYP2D6 (Homo sapiens (Human), UniProt P10635); assay: Cytochrome P450 inhibition (fluorescence), CYP2D6; assay type: in vitro ADME
Experimental: as §8

CYP2C8 = CYP2C8 (Homo sapiens (Human), UniProt P10632); assay: Cytochrome P450 inhibition (fluorescence), CYP2C8; assay type: in vitro ADME
Experimental: as §8

plasma protein [9] = assay: Plasma protein binding (equilibrium dialysis), mouse; conditions: mouse plasma, 1 μM, 5 h dialysis
Experimental: Sample preparation: The compound was dissolved in DMSO to a stock solution of 10 mM, then the compound was diluted with PBS to a secondary stock solution of 0.02 mM, and then the above 0.02 mM was diluted to 1 μM using blank plasma, which was the sample to be incubated.
Dialysis set-up preparation: 400 μL of blank PBS was first added to the white wells of the equilibrated dialysis plate and 200 μL of the configured plasma sample was added to the red wells, and the dialysis plate was sealed with a sealing film.
Recovery plate preparation: Two 96-well deep-well plates, labelled T0 and T5, were prepared and all plasma samples were added at n=2. 300 μL of acetonitrile (Verapamil-HCl, 4 ng/mL) was added directly to the TO plate, followed by 50 μL of blank PBS mix well for 5 min and left to stand in a 4° C. refrigerator until the end of the incubation.
Experimental Operation: The dialysis device and the T5 plate were incubated together for 5 h in a microplate thermostatic shaker (37° C., using 300 rpm or minimum speed). At the end of the incubation, 300 μL of acetonitrile (Verapamil-HCl, 4 ng/mL) was added and 50 μL of PBS solution was added. At the end of the dialysis incubation, a new 96-well deep well plate was taken. Add 50 μL of plasma well sample to the corresponding position of the 96-well plate, 300 μL of acetonitrile and 50 μL of blank PBS; take 50 μL of buffer well sample to the corresponding position of the 96-well plate, then add 300 μL of acetonitrile and 50 μL of blank plasma. Add 300 μL of acetonitrile (Verapamil-HCl, 4 ng/mL) to the plasma-containing wells of the T5 plate, and then 50 μL of PBS solution was added. Shake for 5 min to fully precipitate the proteins and centrifuge at 20,000 g for 10 min at 4° C. Add 200 μL of supernatant to 200 μL of pure water, mix well and perform LC-MS/MS analysis.
• Plasma protein binding rate=[(Rpe−Rb)/Rpe]×100% • Recovery=[(Rpe+Rb)/R5 h]×100% • Stability=(R5/R0)×100%
• Rpe=ratio of plasma-side testing sample peak area to internal standard • Rb=ratio of buffer side testing sample peak area to internal standard • R5=ratio of incubator stability sample peak area to internal standard • R0=ratio of refrigerator stability sample peak area to internal standard

CYP2C19 = CYP2C19 (Homo sapiens (Human), UniProt P33261); assay: Cytochrome P450 inhibition (fluorescence), CYP2C19; assay type: in vitro ADME
Experimental: as §8

CYP 2B6 = CYP 2B6 (Homo sapiens (Human), UniProt P20813); assay: Cytochrome P450 inhibition, CYP2B6; assay type: in vitro ADME
Experimental: as §8

CYP2D6, sequence (P10635 whole entry): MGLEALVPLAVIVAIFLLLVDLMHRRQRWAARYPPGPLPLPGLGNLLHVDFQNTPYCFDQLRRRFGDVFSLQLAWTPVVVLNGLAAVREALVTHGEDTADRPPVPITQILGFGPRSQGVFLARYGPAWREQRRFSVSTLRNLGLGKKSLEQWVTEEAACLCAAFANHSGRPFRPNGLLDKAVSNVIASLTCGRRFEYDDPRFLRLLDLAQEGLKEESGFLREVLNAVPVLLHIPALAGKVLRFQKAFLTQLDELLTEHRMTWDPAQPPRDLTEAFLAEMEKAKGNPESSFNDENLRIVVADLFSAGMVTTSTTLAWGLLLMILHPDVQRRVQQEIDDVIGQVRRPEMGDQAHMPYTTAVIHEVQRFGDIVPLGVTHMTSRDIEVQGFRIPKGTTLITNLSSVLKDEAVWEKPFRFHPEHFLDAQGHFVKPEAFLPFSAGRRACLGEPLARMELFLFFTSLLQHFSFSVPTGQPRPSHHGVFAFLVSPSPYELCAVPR
Wee1 protein, sequence (P30291 whole entry): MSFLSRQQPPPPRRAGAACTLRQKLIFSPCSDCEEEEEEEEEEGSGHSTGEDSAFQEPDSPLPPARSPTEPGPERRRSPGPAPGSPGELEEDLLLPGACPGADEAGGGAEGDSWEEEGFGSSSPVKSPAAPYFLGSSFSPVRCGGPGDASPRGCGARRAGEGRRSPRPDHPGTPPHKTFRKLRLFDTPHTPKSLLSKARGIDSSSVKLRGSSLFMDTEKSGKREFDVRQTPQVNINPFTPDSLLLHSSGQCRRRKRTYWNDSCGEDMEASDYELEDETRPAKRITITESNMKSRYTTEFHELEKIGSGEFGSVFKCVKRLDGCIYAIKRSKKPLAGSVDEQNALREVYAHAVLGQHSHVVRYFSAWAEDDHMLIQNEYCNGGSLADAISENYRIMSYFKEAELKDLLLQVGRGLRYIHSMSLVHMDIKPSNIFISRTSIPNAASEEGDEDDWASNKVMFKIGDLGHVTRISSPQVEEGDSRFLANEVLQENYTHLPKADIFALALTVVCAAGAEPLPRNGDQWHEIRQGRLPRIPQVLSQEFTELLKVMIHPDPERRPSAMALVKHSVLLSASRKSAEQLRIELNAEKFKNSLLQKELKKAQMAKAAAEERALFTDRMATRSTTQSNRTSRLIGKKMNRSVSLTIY
CYP3A4, sequence (P08684 whole entry, canonical isoform): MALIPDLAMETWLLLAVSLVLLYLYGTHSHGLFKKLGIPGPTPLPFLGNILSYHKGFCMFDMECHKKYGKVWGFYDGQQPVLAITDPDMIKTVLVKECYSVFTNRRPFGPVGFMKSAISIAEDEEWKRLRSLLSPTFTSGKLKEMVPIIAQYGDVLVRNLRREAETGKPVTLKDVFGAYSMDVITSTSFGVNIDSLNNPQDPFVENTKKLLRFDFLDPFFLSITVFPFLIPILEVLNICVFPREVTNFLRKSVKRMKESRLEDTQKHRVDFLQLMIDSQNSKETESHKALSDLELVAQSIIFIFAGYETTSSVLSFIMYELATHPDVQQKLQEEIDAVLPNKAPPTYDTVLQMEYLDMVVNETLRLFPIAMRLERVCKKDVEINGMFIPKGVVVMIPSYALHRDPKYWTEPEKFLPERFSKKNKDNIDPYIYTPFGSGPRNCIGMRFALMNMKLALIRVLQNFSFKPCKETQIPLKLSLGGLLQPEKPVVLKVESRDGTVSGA
hERG potassium channel, sequence (Q12809 whole entry): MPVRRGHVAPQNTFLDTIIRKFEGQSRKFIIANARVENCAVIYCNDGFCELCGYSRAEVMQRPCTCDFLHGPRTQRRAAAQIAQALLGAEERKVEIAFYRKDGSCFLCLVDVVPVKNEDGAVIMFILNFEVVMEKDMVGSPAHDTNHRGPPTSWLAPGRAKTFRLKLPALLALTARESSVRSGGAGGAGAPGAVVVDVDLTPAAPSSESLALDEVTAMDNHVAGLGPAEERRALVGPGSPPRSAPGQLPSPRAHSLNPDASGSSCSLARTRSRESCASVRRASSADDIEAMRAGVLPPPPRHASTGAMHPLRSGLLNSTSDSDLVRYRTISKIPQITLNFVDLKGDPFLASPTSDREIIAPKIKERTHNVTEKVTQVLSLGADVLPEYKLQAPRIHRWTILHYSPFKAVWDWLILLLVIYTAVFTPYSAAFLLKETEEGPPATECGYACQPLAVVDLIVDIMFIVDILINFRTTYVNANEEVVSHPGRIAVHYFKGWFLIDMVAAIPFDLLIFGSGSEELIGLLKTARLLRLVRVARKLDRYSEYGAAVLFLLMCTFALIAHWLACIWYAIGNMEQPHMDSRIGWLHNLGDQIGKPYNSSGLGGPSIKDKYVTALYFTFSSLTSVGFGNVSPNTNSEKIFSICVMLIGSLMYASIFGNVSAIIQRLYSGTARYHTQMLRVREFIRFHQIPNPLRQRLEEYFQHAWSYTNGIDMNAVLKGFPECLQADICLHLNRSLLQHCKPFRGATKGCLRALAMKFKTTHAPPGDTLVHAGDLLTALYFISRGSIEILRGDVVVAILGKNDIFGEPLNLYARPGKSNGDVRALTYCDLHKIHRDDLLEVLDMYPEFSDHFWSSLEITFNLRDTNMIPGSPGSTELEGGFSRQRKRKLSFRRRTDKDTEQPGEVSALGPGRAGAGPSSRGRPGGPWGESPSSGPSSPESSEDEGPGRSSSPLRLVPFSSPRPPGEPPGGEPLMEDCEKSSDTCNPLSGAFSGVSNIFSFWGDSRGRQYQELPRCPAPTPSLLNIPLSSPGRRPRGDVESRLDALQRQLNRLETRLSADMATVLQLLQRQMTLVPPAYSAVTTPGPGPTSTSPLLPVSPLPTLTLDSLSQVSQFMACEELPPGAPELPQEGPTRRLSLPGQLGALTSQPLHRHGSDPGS
CYP2C8, sequence (P10632 whole entry): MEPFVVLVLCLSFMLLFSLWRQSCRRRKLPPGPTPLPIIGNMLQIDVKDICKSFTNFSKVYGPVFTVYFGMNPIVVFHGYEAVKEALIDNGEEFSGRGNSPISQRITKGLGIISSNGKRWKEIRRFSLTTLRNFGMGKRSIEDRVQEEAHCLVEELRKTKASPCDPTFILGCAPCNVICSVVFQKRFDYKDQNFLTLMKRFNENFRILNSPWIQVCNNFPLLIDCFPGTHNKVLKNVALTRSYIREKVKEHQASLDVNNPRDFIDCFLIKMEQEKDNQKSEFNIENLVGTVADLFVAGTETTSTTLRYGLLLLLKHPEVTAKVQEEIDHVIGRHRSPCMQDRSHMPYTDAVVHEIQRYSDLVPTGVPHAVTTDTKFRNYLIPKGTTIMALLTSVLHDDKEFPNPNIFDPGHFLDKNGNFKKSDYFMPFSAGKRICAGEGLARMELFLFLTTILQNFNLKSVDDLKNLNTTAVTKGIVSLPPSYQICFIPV
CYP2C9, sequence (P11712 whole entry): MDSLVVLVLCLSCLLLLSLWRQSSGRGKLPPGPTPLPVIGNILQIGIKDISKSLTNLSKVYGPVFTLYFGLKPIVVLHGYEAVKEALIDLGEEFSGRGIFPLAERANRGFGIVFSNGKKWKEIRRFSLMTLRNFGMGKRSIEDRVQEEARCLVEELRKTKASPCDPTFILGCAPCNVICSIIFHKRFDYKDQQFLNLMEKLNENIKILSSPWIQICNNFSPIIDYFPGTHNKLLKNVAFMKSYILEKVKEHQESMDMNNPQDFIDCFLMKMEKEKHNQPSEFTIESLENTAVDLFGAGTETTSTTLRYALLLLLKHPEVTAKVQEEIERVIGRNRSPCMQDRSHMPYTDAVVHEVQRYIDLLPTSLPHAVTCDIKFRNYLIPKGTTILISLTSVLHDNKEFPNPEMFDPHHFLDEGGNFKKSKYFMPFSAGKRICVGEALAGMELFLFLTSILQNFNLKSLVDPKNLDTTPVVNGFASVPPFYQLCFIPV
CYP1A2, sequence (P05177 whole entry): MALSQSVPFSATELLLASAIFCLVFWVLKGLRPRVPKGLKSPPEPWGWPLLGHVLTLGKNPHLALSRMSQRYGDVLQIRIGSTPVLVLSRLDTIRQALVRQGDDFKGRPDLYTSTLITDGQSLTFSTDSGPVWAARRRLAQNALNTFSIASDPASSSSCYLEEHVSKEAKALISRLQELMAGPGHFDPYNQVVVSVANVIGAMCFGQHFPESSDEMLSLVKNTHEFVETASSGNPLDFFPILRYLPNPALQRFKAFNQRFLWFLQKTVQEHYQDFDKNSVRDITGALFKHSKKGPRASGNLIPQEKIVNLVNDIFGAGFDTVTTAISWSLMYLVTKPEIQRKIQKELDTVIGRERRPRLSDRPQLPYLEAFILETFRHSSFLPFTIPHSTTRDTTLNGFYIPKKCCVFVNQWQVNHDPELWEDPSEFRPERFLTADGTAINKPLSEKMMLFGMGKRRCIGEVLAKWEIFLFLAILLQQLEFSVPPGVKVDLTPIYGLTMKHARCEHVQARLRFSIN
CYP2C19, sequence (P33261 whole entry): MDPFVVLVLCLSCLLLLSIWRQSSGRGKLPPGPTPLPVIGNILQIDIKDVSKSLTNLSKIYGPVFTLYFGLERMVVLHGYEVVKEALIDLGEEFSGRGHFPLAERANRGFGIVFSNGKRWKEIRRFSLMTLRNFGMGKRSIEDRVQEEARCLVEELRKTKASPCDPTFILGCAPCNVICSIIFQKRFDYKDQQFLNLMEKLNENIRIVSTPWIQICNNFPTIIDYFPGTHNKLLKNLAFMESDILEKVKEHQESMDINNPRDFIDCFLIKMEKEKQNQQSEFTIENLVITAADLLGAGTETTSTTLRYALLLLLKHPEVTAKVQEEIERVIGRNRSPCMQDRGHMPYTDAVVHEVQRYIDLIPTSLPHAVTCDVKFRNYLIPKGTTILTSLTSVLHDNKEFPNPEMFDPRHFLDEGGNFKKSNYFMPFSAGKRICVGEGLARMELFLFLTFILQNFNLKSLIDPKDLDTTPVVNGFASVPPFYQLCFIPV

Row | IC50 (CYP3A4; read-out: IC50 CYP3A4) | IC50 (CYP1A2) | IC50 (CYP2C9; read-out: IC50 CYP2C9) | IC50 (CYP2D6; read-out: IC50 CYP2D6) | IC50 (CYP2C8; read-out: IC50 CYP2C8) | Compound | IC50 (Wee1 protein) | IC50 (BxPC3 cells) | IC50 (HT-29 cells) | IC50 (OVCAR-3 cells) | IC50 (HUVEC cells) | IC50 (HK2 cells) | hERG Inhibition (hERG potassium channel; test concentration 5 μM) | hERG Inhibition (hERG potassium channel; test concentration 20 μM) | T1/2 liver microsomes Mouse [3] | T1/2 liver microsomes Human [4] | T1/2 liver microsomes Rat [5] | T1/2 liver microsomes Dog [6] | T1/2 liver microsomes Monkey [7] | Plasma Protein binding (PPB) Rat (plasma protein [8]) | Plasma Protein binding (PPB) Mouse (plasma protein [9]) | also measured
1 | – | – | – | – | – | C=CCn1c(=O)c2cnc(Nc3ccc(N4CCN(C)CC4)cc3)nc2n1-c1ccc2c(n1)[C@@](O)(CC)CC2 [ZnC3, reference compound] | 0.01 to 0.1 µM | 0.1 to 1 µM | 0.1 to 1 µM | 0.1 to 1 µM | > 10 µM | 0.34 µM | 7.38 ± 1.59% | 18.05 ± 7.58% | – | – | – | – | – | – | – | Saturated solubility pH 5.0 ([1]; pH 5): 0.35 mg/mL; Saturated solubility pH 6.5 ([1]; pH 6.5): 0.59 mg/mL; Saturated solubility pH 7.4 ([1]; pH 7.4): 0.68 mg/mL; Efflux Ration (Caco-2 cells; Caco2): 35.74; Papp A to B (Caco-2 cells; Caco2, 10 μM, 90 min): 0.42 10^−6 cm/s; Papp B to A (Caco-2 cells; Caco2, 10 μM, 90 min): 15.01 10^−6 cm/s; Survival of Rats ([2]; female rats): 1/7; Survival of Rats ([2]; male rats): 2/7
2 | > 10 µM | > 10 µM | > 10 µM | > 10 µM | > 10 µM | C=CCn1c(=O)c2cnc(Nc3ccc(N4CCC5(CCN(C)CC5)CC4)cc3)nc2n1-c1ccc2c(n1)[C@](C)(O)C1(CC2)CC1 (racemic) [Compound 44] | – | 0.1 to 1 µM | 0.1 to 1 µM | 0.1 to 1 µM | – | – | 77.68 ± 4.16% | 91.56 ± 2.72% | 1.05 h | 1.296 h | >2 h | 0.7135 h | 0.5015 h | 96.98% | 98.46% | –
3 | > 10 µM | > 10 µM | > 10 µM | > 10 µM | > 10 µM | C=CCn1c(=O)c2cnc(Nc3ccc(N4CCC5(CCN(C)CC5)CC4)cc3)nc2n1-c1ccc2c(n1)[C@H](O)C1(CC2)CC1 [Compound 37b] | 0.005 to 0.01 µM | 0.1 to 1 µM | 0.1 to 1 µM | 0.1 to 1 µM | > 10 µM | 1.53 µM | – | – | – | – | – | – | – | – | – | IC50 (CYP2C19; read-out: IC50 CYP2C19): > 10 µM; IC50 (CYP 2B6): > 10 µM
4 | – | – | – | – | – | C=CCn1c(=O)c2cnc(Nc3ccc(N4CCN(C)CC4)cc3)nc2n1-c1ccc2c(n1)C(C)(O)C1(CC1)C2 (stereo not drawn) [Compound 3] | 0.005 to 0.01 µM | 1 to 2 µM | 0.1 to 1 µM | 1 to 2 µM | – | – | – | – | – | – | – | – | – | – | 87.75% | IC50 (CYP3A4): > 10 µM; IC50 (CYP1A2; read-out: IC50 CYP1A2): > 10 µM; IC50 (CYP2C9): > 10 µM; IC50 (CYP2C19): > 10 µM; IC50 (CYP2D6): > 10 µM; IC50 (CYP2C8): > 10 µM

Row | Compound | IC50 (CYP3A4; read-out: IC50 CYP3A4) | IC50 (CYP1A2) | IC50 (CYP2C9; read-out: IC50 CYP2C9) | IC50 (CYP2D6; read-out: IC50 CYP2D6) | IC50 (CYP2C8; read-out: IC50 CYP2C8) | IC50 (Wee1 protein) | IC50 (BxPC3 cells) | IC50 (HT-29 cells) | IC50 (OVCAR-3 cells) | IC50 (HUVEC cells) | IC50 (HK2 cells) | hERG Inhibition (hERG potassium channel; test concentration 5 μM) | hERG Inhibition (hERG potassium channel; test concentration 20 μM) | T1/2 liver microsomes Mouse [3] | T1/2 liver microsomes Human [4] | T1/2 liver microsomes Rat [5] | T1/2 liver microsomes Dog [6] | T1/2 liver microsomes Monkey [7] | Plasma Protein binding (PPB) Rat (plasma protein [8]) | Plasma Protein binding (PPB) Mouse (plasma protein [9]) | also measured
5 | C=CCn1c(=O)c2cnc(Nc3ccc(N4CC5CC(C4)N5C)cc3)nc2n1-c1ccc2c(n1)[C@@](C)(O)C1(CC2)CC1 [Compound 7a] | > 10 µM | > 10 µM | > 10 µM | > 10 µM | > 10 µM | 0.005 to 0.01 µM | 0.1 to 1 µM | 0.1 to 1 µM | 0.1 to 1 µM | > 10 µM | 0.67 µM | – | – | 1.209 h | 1.057 h | 0.357 h | 1.541 h | 0.2625 h | 94.82% | 97.21% | –
